Experimental findings from patent US11136325B2, “Pyrrolopyrimidine and pyrrolopyridine derivatives” (GALAPAGOS NV, priority 2017, dated 2021) are described below.

The assay concerns ASK1/2 (phospho-MKK3 in H2O2-stimulated PBMCs). The experiment in a line: ASK1/2 cellular assay: phospho-MKK3 in H2O2-stimulated PBMCs, western blot. The class given is cell-based. As to conditions: PBMC, 0.5 h, 3 mM H2O2, 30 min, read-out: Inhibition (pIC50) (converted). Here is the method: ASK1/2 activity in vitro was assayed by determining the quantity of phospho-MKK3 protein in H2O2-stimulated PBMCs, using western blot method.
• Lymphoprep (Axis-Shield, Cat. No. 1114545) • Ammonium chloride lysate buffer pH 7.4 (10× concentrated): • NH4Cl—final conc. 1.5 M (Kemika, Cat. No. 0137407) • NaHCO3— final conc. 100 mM (Kemika, Cat. No. 1411007) • Na2EDTA—final conc. 10 mM (Sigma Aldrich; Cat. No. E-4884) • RPMI 1640 (Lonza Cat. No. BE12-115F/U1) • FBS (Sigma Cat. No. F7524, heat inactivated 30′/56° C.) • Dimethyl sulfoxide (DMSO) (Sigma, Cat. No. D2650) • Cell lysis buffer (pH 7.4): PBS+1% Triton X-100 (Sigma Aldrich; Cat. No. X100)—10 ml • Phospho-Stop—1 tablet (Sigma, Cat. No. 4693124001) • Protease Inhibitor—1 tablet (Sigma, Cat. No. 4906837001) • Hydrogen peroxide solution 3% w/w (Sigma Aldrich, Cat. No. H-6520) • PBS (Sigma Aldrich, Cat. No. P4417-100TAB) • Microplate, 96 well, pp, v-bottom, clear (Greiner bio-one; Cat. No. 651201) • Tissue culture plate, 6 well, flat bottom with low evaporation lid (Falcon, Cat. No. 353224) • 50 mL falcon tube (TPP, Cat. No. 91050) • Pierce BCA Protein Assay Kit (Thermo Scientific, Cat. No. 23225) • Immulon® Microtiter™ 96-Well Plate 1B (Thermo Scientific, Cat. No. 3355) • Wes 12-230 kDa Master Kit (Protein Simple, Cat. No. PS-MK14) • MKK3 (D4C3) Rabbit mAb (Cell Signaling, Cat. No. 8535) • Phospho-MKK3 (Ser189)/MKK6 (Ser207) (D8E9) Rabbit mAb (Cell Signaling, Cat. No. 12280)
The assay was configured to run using the following conditions: Tested compounds concentration range: 1-0.0014 μM (7 three-fold serial dilutions); H2O2 concentration: 3 mM
To isolate the PBMCs from buffy coat, the buffy coat was diluted 1:1 in PBS, then the dilute buffy-coat (25 mL) was carefully pipetted on top of 20 mL of Lymphoprep in a falcon tube. The tubes were then spun for 35 min at 400×g. The upper plasma layer is then carefully removed leaving the layer containing the MNCs. The layer containing the MNCs is then transferred to a new tube, PBS is added up to a total volume of 50 mL and the tube is then spun for 10 minutes (200×g, 25° C.). The resulting pellet is then resuspended in 2 mL PBS, the washing step was repeated. The final pellets were resuspended in ammonium chloride lysate buffer up to 50 mL, mixed gently and centrifuged for 10 minutes (200×g, 25° C.), resuspended in 2-3 mL of cell medium and diluted up to 50 mL in cell medium. The cell density of a 1/20 dilution in cell medium was determined using an automated cell counter.
10×10^6 PBMCs were seeded per well in 1 mL of RPMI 1640 cell medium supplemented with 10% FBS in 6-well plates. Seven sets of three-fold serial dilutions of compounds in DMSO starting from 1 mM in 96-well v-bottom plate were prepared. The DMSO compound solutions were diluted 100× in the cell medium. 200 μL of 100× diluted compound solution were added per well, control wells contained 200 μL of 1% DMSO prepared in cell medium. 7.5 mM H2O2 in cell medium was prepared and 800 μL was added to each well, except the negative control well to which 800 μL of cell medium was added. The cells were incubated for 30 min at 37° C., 5% CO2, 95% humidity. The cells were transferred to 2 mL Eppendorf tubes and centrifuged for 10 minutes at 300×g at 4° C., they were then washed with 1 mL PBS, the cell pellet was resuspended in 100 μL of lysis buffer and incubated on ice for 30 minutes. After which time the cell lysates were centrifuged for 5 minutes at 10000×g at 4° C. and the supernatants were then stored at −20° C.
Samples were diluted 5× in cell lysis buffer and total protein concentration was determined in 96-well Immulon 1B plate using BCA Protein Assay Kit following manufacturer's instructions.
Western blot assay was performed using Protein Simple Wes Master Kit and device, following manufacturer's instructions. 0.5 mg/mL of total proteins was loaded per sample; phospho-MKK3 and MKK3 antibodies were diluted 300×. […]
In general terms: A western blot detects proteins with antibodies after separation by electrophoresis.
On to `Nc1cc(C(=O)NC2CCN(c3ncnc4[nH]cc(Cl)c34)CC2)c(F)cn1` [Compound 5, 2-amino-N-[1-(5-chloro-7H-pyrrolo[2,3-d]pyrimidin-4-yl)-4-piperidyl]-5-fluoro-pyridine-4-carboxamide], for which the IC50 was 6.31 nM.

As to `Cc1c[nH]c2ncnc(N3CCC(NC(=O)c4cc(N)ncc4F)CC3)c12` [Compound 1, 2-amino-5-fluoro-N-[1-(5-methyl-7H-pyrrolo[2,3-d]pyrimidin-4-yl)-4-piperidyl]pyridine-4-carboxamide], the IC50 was 8.91 nM. As for `Nc1cc(C(=O)NC2CCN(c3ccnc4[nH]cc(Cl)c34)CC2)c(F)cn1` [Compound 7, 2-amino-N-[1-(3-chloro-1H-pyrrolo[2,3-b]pyridin-4-yl)-4-piperidyl]-5-fluoro-pyridine-4-carboxamide], the IC50 was 12.6 nM.

With `Cc1c[nH]c2ncnc(N3CCC(NC(=O)c4cc(N)ncc4Cl)CC3)c12` [Compound 3, 2-amino-5-chloro-N-[1-(5-methyl-7H-pyrrolo[2,3-d]pyrimidin-4-yl)-4-piperidyl]-pyridine-4-carboxamide], the IC50 is 39.8 nM. The result for `Cc1cnc(N)cc1C(=O)NC1CCN(c2ncnc3[nH]cc(C)c23)CC1` [Compound 2, 2-amino-5-methyl-N-[1-(5-methyl-7H-pyrrolo[2,3-d]pyrimidin-4-yl)-4-piperidyl]pyridine-4-carboxamide] reads 3.16 nM; that for `Nc1cc(C(=O)NC2CCN(c3ncnc4[nH]cc(Cl)c34)CC2)ccn1` [Compound 4, 2-amino-N-[1-(5-chloro-7H-pyrrolo[2,3-d]pyrimidin-4-yl)-4-piperidyl]pyridine-4-carboxamide], 7.94 nM; that for `Cc1c[nH]c2ncc(C#N)c(N3CCC(NC(=O)c4cc(N)ncc4F)CC3)c12` [Compound 6, 2-amino-N-[1-(5-cyano-3-methyl-1H-pyrrolo[2,3-b]pyridin-4-yl)-4-piperidyl]-5-fluoro-pyridine-4-carboxamide], 12.6 nM.
